{"source": "patent US20220304992A1", "about": "“METHODS OF REJUVENATING AGED TISSUE BY INHIBITING 15-HYDROXYPROSTAGLANDIN DEHYDROGENASE (15-PGDH)” (The Board of Trustees of the Leland Stanford Junior …, priority 2019, published 2022)", "key": {"INK-ATTAC mice": {"tested_on": "INK-ATTAC mice", "test": "AP20187 clearance of senescent cells in INK-ATTAC mice", "type": "in vivo, mouse", "details": "16-month treatment", "from_the_text": "We performed all experiments and protocols in compliance with the institutional guidelines of Stanford University and Administrative Panel on Laboratory Animal Care (APLAC). Middle aged (18-20 mo.) and aged (>24 mo.) mice C57BL/6 were obtained the US National Institute on Aging (NIA) for aged muscle studies, and young (2-4 mo.) wild-type C57BL/6 mice from Jackson Laboratory. INK-ATTAC mice were generated as previously described (1). INK-ATTAC healthspan assessments. INK-ATTAC mice were crossed onto the C57BL6/J genetic background and maintained in specific-pathogen free housing on a 12-hour dark/light cycle for study duration. At 12 months of age, male mice were either utilized for baseline healthspan assessments and terminal muscle harvest or randomized to receive twice-weekly vehicle or AP20187 (2 mg/kg intraperitoneal injection; B/B homodimerizer, Clontech) until assessment and sacrifice at 28 months of age (2). […] Time and distance to exhaustion was performed as previously described (4) for SW-treated mice and their controls.\nWe isolated and enriched myogenic cells as previously described (6-9). Briefly, hindlimb muscles were minced and digested using a collagenase and dispase solution by the MACs Dissociator (Miltenyi). Using FACs, for myogenic stem and progenitor cells we isolated cells negative for the hematopoietic lineage and non-muscle cells (CD45-/CD11b-/CD31-/Scal-) and sorted for a7-integrin*cells markers. For macrophages isolation we sorted a7-/Cd11b+/Cd11c-/F4/80^+ populations. For endothelial cells we sorted a7-/Cd11b-/Cd11c/CD31+. We generated and analyzed flow cytometry scatter plots using FlowJo v10.0."}, "AKT/FOXO pathway": {"tested_on": "AKT/FOXO pathway", "test": "Immunoblots of human myotubes treated with PGE2", "type": "cell-based", "details": "PGE2 10 ng/ml, 15 or 30 minutes", "experimental": "Primary murine myoblasts were grown in myogenic cell culture medium containing DMEM/F10 (50:50), 15% FBS, 2.5 ng ml^-1 fibroblast growth factor-2 and 1% penicillin-streptomycin. […] For differentiation experiments, confluent myoblasts were grown in medium containing 5% horse serum, DMEM. […] Total lysates were prepared using lysis buffer (50 mM Tris-HCl pH 7.5, 150 mM NaCl, 4 mM CaCl, 1.5% Triton X-100, protease inhibitors and micrococcal nuclease). […] We used the following antibodies: 15-PGDH (Santa Cruz Biotechnology, cat # sc-271418); phospho-AKT ([…]) (Cell Signaling cat #4060), AKT (Cell signaling cat #2920); phospho-FoxO1 ([…])/FoxO3a ([…]) Antibody (Cell Signaling cat #9464T); Foxo3a (Cell Signaling cat #2497); phospho-CREB (Ser133) (Cell Signaling cat #9198S); phospho-S6 ribosomal protein (Ser235/236) (Cell Signaling cat#4858); SMC1 (Bethyl Laboratories cat# […]). We used HRP conjugated secondary antibodies and developed by incubating the membranes with ECL Western Blotting Substrate (Nacalai USA) and imaging using the ChemiDoc Imaging System (BioRad)."}, "[1]": {"tested_on": "cyclic AMP response element binding protein (CREB)", "test": "Immunoblots of muscle lysates after intramuscular PGE2", "type": "in vivo, mouse", "details": "young mice, 13 nmol i.m., 0, 30 or 60 minutes", "experimental": "(§1) For ABT-263 treatments, 20 month old C57/B16 mice were treated with vehicle (ethanol:polyethylene glycol 400:Phosal 50 PG) or 50 mg/kg/day ABT-263 (in ethanol:polyethylene glycol 400:Phosal 50 PG) by oral gavage for 2 cycles of 1 week with a 2 week rest period between cycles as described previously (5). Intramuscular injection of PGE2 was carried out in young mice with either 13 nmol PGE2 (Cayman Chemicals) or vehicle control (PBS) into the TA muscle. Mouse transgenic strains were purchased from The Jackson Laboratory (EP4^flox/flox; EP4O) No. 028102 (6). We validated these genotypes by appropriate PCR-based strategies. Studies were performed with male mice.\nTotal lysates were prepared using lysis buffer (50 mM Tris-HCl pH 7.5, 150 mM NaCl, 4 mM CaCl, 1.5% Triton X-100, protease inhibitors and micrococcal nuclease). For tissue extracts, lysates were homogenized a FastPrep 24 homogenizer (MP Biomedicals) for 40 seconds at a speed of 6 m/s. We used the following antibodies: 15-PGDH (Santa Cruz Biotechnology, cat # sc-271418); phospho-AKT (Ser 473) (Cell Signaling cat #4060), AKT (Cell signaling cat #2920); phospho-FoxO1 (Thr24)/FoxO3a (Thr32) Antibody (Cell Signaling cat #9464T); Foxo3a (Cell Signaling cat #2497); phospho-CREB (Ser133) (Cell Signaling cat #9198S); phospho-S6 ribosomal protein (Ser235/236) (Cell Signaling cat#4858); SMC1 (Bethyl Laboratories cat# A300-055A-T). […]"}, "myotubes": {"tested_on": "myotubes", "test": "Differentiated (starved) cultured myotubes: Atrogin1 expression and diameter", "type": "cell-based, mouse", "experimental": "For myotubes we performed fixation using 4% PFA, blocking and permeabilization using PBS/1% BSA/0.1% Triton X-100 and staining with primary antibodies anti-MyHC (Thermo Fisher Scientific, catalog #14-6503-82, clone MF-20, 1:500) and then with AlexaFluor secondary Antibodies (Jackson ImmunoResearch Laboratories, 1:500). We counterstained nuclei with DAPI (Invitrogen).\nPrimary myoblasts were grown in myogenic cell culture medium containing DMEM/F10 (50:50), 15% FBS, 2.5 ng ml-1 fibroblast growth factor-2 and 1% penicillin-streptomycin. For differentiation experiments, confluent myoblasts were grown in medium containing 5% horse serum, DMEM. […] Myoblasts were isolated from EP4^fl/fl mice and received either a mCherry/Cre lentivirus or a mock infection as previously described (5).\nFor cultured myotubes we performed fixation using 4% PFA, blocking and permeabilization using PBS/1% BSA/0.1% Triton X-100 and staining with primary antibodies anti-MYH (Thermo Fisher Scientific, catalog #14-6503-82, clone MF-20, 1:500) and then with AlexaFluor secondary Antibodies (Jackson ImmunoResearch Laboratories, 1:500). We counterstained nuclei with DAPI (Invitrogen). We acquired images using the KEYENCE BZ-X700 all-in-one fluorescence microscope (Keyence) with 20x/0.75 N.A. objectives. We analyzed the fiber area using the Keyence Advanced Analysis Software. For fiber area the entire maximum cross-sectional area of the muscle was quantified or at least 10 fields of LAMININ or WGA stained myofiber cross-sections encompassing over 400 myofibers were captured for each mouse as above. For fiber typing analysis, the MATLAB application SMASH-Semi-Automatic Muscle Analysis Using Segmentation of Histology, was used as previously described (12). Data analyses were blinded. The researchers performing the imaging acquisition and scoring were unaware of treatment condition given to sample groups analyzed.\nPrimary murine myoblasts were grown in myogenic cell culture medium containing DMEM/F10 (50:50), 15% FBS, 2.5 ng ml^−1 fibroblast growth factor-2 and 1% penicillin-streptomycin. […] For differentiation experiments, confluent myoblasts were grown in medium containing 5% horse serum, DMEM."}, "murine myotubes": {"tested_on": "murine myotubes", "test": "Protein synthesis by in vitro SUnSET (puromycin incorporation)", "type": "cell-based, mouse", "details": "PGE2 10 ng/ml daily, 4 d", "experimental": "The SUnSET assay was used to monitor the rate of protein synthesis as previously described (4). Briefly, 10 min prior harvesting the cells, puromycin was added to culture medium at […]. As a control, cycloheximide to block protein translation was added. Cell extracts were then processed for western blotting using anti-puromycin 12D10 antibody (Millipore)."}, "15-PGDH (Hpgd)": {"tested_on": "15-PGDH (Hpgd)", "test": "Senolytic ABT-263 treatment of aged mice: 15-PGDH in muscle", "type": "in vivo, mouse", "details": "20 month mice, analyzed 2 months later", "experimental": "For ABT-263 treatments, 20 month old C57/B16 mice were treated with vehicle (ethanol:polyethylene glycol 400:Phosal 50 PG) or ABT-263 (in ethanol:polyethylene glycol 400:Phosal 50 PG) by oral gavage for 2 cycles of 1 week with a 2 week rest period between cycles as described previously (1). For the Duchenne muscular dystrophy (DMD) mouse model, we used 8-10 month old mdx4cv/mTRKO(G2) generated as previously described (2).\nas §1\nWe collected and prepared recipient Tibialis anterior (TA) or gastrocnemius (GA) muscle tissues for histology as previously described (6). […]"}}, "note": "Entries after “also recorded” stand apart in the source; their conditions may differ.", "data": [{"smiles": "CC[C@H](C(=O)N1CCCC[C@H]1C(=O)O[C@H](CCc1ccc(OC)c(OC)c1)c1cccc(OCC(=O)NCC(CNC(=O)COc2cccc([C@@H](CCc3ccc(OC)c(OC)c3)OC(=O)[C@@H]3CCCCN3C(=O)[C@@H](CC)c3cc(OC)c(OC)c(OC)c3)c2)CN(C)C)c1)c1cc(OC)c(OC)c(OC)c1", "note": "[AP]", "values": [{"measurement": "15-PGDH levels in FACS isolated macrophages", "setting": "INK-ATTAC mice", "result": "reduced levels"}, {"measurement": "PGE2 levels in muscle by LC-MS/MS", "setting": "INK-ATTAC mice", "result": "increase"}, {"measurement": "15-PGDH transcript levels in muscle", "setting": "INK-ATTAC mice; 2 mg/kg i.p. twice weekly", "result": "markedly reduced"}, {"measurement": "endurance (distance run on a treadmill until exhaustion and body weight)", "setting": "INK-ATTAC mice; 28 months", "result": "increase"}, {"measurement": "grip strength", "setting": "INK-ATTAC mice; 28 months", "result": "increase"}, {"measurement": "hindlimb muscle mass (TA and GA)", "setting": "INK-ATTAC mice; 28 months", "result": "increase"}]}, {"smiles": "CCCCC[C@H](O)/C=C/[C@H]1[C@H](O)CC(=O)[C@@H]1C/C=C\\CCCC(=O)O", "note": "[PGE2, Prostaglandin E2]", "values": [{"measurement": "FOXO (pFOXO3a)", "setting": "AKT/FOXO pathway", "result": "inactivated"}, {"measurement": "pAKT levels", "setting": "AKT/FOXO pathway", "result": "increased levels"}, {"measurement": "phospho-S6 ribosomal protein (pS6rp)", "setting": "AKT/FOXO pathway", "result": "activated"}, {"measurement": "CREB activation in skeletal muscles", "setting": "[1]", "result": "activates; also recorded: activation"}, {"measurement": "myotube diameter", "setting": "myotubes; starved (24 hr) or non-starved myotubes, PGE2 10 ng/ml, SW 1 μM", "result": "increased; also recorded: marked increase"}, {"measurement": "Atrogin1 expression", "setting": "myotubes; starved myotubes, PGE2 10 ng/ml", "result": "greatly decreased"}, {"measurement": "protein synthesis quantified by puromycin incorporation", "setting": "murine myotubes", "result": "increased"}]}, {"smiles": "CC1(C)CCC(c2ccc(Cl)cc2)=C(CN2CCN(c3ccc(C(=O)NS(=O)(=O)c4ccc(N[C@H](CCN5CCOCC5)CSc5ccccc5)c(S(=O)(=O)C(F)(F)F)c4)cc3)CC2)C1", "note": "[ABT-263, navitoclax]", "values": [{"measurement": "15-PGDH (Hpgd) mRNA / gene expression levels in muscle", "setting": "15-PGDH (Hpgd); 50 mg/kg/day oral gavage, 2 cycles, 50 mg/kg/day", "result": "reduced; also recorded: markedly decreased"}, {"measurement": "percentage of cells expressing 15-PGDH by immunohistochemistry", "setting": "15-PGDH (Hpgd)", "result": "markedly decreased"}]}, {"smiles": "CC(C(=O)Nc1cc(C#N)ccc1CCCC(=O)O)c1ccc(F)c2ccccc12", "note": "(stereo not shown) [ONO-AE3-208]", "values": [{"measurement": "PGE2-induced increase of myotube diameter in the presence of the antagonist", "setting": "myotubes; ONO-AE3-208 1 μM with PGE2 10 ng/ml", "result": "abrogated; also recorded: not seen"}]}]}
